# Key:
# Assay type in all cases: in vivo
# Myzus persicae [1] = experiment: Larvae treatment Episyrphus: infestation by Myzus persicae on Savoy cabbage; details: Episyrphus larvae added
# Description: (§1) Foliar treatment is carried out using compound (I-5) in a concentration of 75 g of active compound per hectare.
# (§2) Drench treatment is carried out using compound (I-5) in a concentration of 10 mg of active compound per plant.
# (§3) Foliar treatment with Karate Zeon CS100 as toxic control was carried out in a concentration of 12.5 g of active compound per hectare.
# (§4) Beneficial species: Episyrphus balteatus larvae Pest: Myzus persicae
# (§5) Per experiment, 3 repetitions with in each case 2 pot cages with in each case 5 larvae are carried out.
# (§6) For the experiment, Savoy cabbage plants are grown in pots having a diameter of 14 cm, placed in a breeding cage and infested thoroughly with Myzus persicae.
# (§7) After the spray coating has dried on, a quartz sand layer of a thickness of about 1 cm is applied to the soil in the pot, and the pot cage is put over the plant. In each case 5 Episyrphus larvae are then counted out, and in each case 5 specimen are added to the plants in the pot cage.
# (§8) For each plant, at the beginning the Myzus persicae number is estimated at the appropriate points in time and the dead, dying and alive larvae are counted separately. All larvae, i.e. all larvae present on the plant and the surface of the quartz sand base, are counted.
# [2] = system: Episyrphus balteatus larvae; experiment: Larvae treatment Episyrphus: kill of beneficial species larvae on Savoy cabbage
# Description: as §1, §2, §3, §4, §5, §6, §7, §8
# [3] = system: Coccinella septempunctata L2 larvae; experiment: Larvae treatment Coccinella: kill of beneficial species larvae on Savoy cabbage
# Description: as §1, §2, §3
# Beneficial species: Coccinella septempunctata L2 larvae Pest: Myzus persicae
# Each experiment is carried out in 3 repetitions with in each case 2 pot cages with in each case 5 larvae.
# (§9) For the experiment, Savoy cabbage plants are grown in pots having a diameter of 14 cm, placed in a breeding cage and infested thoroughly with Myzus persicae. Per experiment, 6 pots having a well-established aphid population are selected and the aphids are rated by estimation of their number. The plants are treated with the active compound solution of the appropriate concentration.
# After the spray coating has dried on, a quartz sand layer of a thickness of about 1 cm is applied to the soil in the pot, and the pot cage is put over the plant. In each case 5 Coccinella larvae are then counted out, and in each case 5 specimen are added to the plants in the pot cage.
# as §8
# [4] = system: Macrolophus caliginosus nymphs; experiment: Residual test with nymphs of Macrolophus caliginosus on tomato leaves
# Description: Foliar treatment is carried out using compound (I-5) in a concentration of 100 g of active compound per hectare.
# Drench treatment is carried out using compound (I-5) in a concentration of 15 mg of active compound per plant.
# Foliar treatment with Karate Zeon CS100 as toxic control was carried out in a concentration of 12.5 g of active compound per hectare. The active compound in its respective formulation is brought to the required concentration by dilution with water.
# Tomato plants cultivated in a greenhouse are treated with the respective active compound solutions. 1, 8, 16 and 23 days after the application, leaves are plucked from the test plants (5 samples per plot). The individual leaves are then mounted in test cages. 10 Macrolophus caliginosus nymphs are added to each cage. The test cages are placed under controlled conditions in a climatized chamber. The kill of the insects/larvae is determined after 24, 48 and 72 hours of exposure.
# Metopolophium dirhodum = experiment: Treatment Anthocoris adult: infestation by Metopolophium dirhodum on maize; details: Anthocoris adults added
# Description: as §1, §2, §3
# Beneficial species: Anthocoris nemoralis adults Pest: Metopolophium dirhodum
# Per experiment, 3 repetitions with in each case 2 pot cages with in each case 5 adults are carried out.
# as §9, with “maize” for “Savoy cabbage”, “Metopolophium dirhodum.” for “Myzus persicae.”
# After the spray coating has dried on, a quartz sand layer of a thickness of about 1 cm is applied to the soil in the pot, and the pot cage is put over the plant.
# In each case 5 Anthocoris adults are then counted out, and in each case 5 specimen are added to the plants in the pot cage.
# For each plant, at the beginning the Metopolophium dirhodum number is estimated at the appropriate points in time and the dead, dying and alive adults are counted separately. All adults, i.e. all adults present on the plant and the surface of the quartz sand base, are counted.
# Myzus persicae [5] = experiment: Larvae treatment Aphidoletes: infestation by Myzus persicae on Savoy cabbage; details: Savoy cabbage with Aphidoletes larvae
# Description: as §1, §2, §3
# (§10) Beneficial species: Aphidoletes aphidimyza larvae Pest: Myzus persicae
# (§11) Each experiment is carried out in 3 repetitions.
# (§12) Per plot, 6 Savoy cabbage plants are placed into a planting-out tray and infested with Myzus persicae. About 1 week later, with a well-established Myzus population, the Aphidoletes aphidimyza are added. The application is carried after about 2 weeks once sufficient L2 stage Aphidoletes larvae are present (at least 20 larvae per tray).
# (§13) In preparation for the application, the plants are reduced to 4 healthy green leaves.
# (§14) Immediately prior to the application, the Myzus population and the number of Aphidoletes larvae are rated. For the application, all 6 plants of a plot are placed onto the turntable, and the amount of spray liquor for 0.666 m^2 is applied while turning slowly. After the application, the trays are placed into the standard cages.
# (§15) For each plant, the number of Myzus persicae is estimated at the beginning at the appropriate points in time, and the larvae are counted accurately.
# [6] = system: Aphidoletes aphidimyza larvae; experiment: Larvae treatment Aphidoletes: kill of beneficial species larvae on Savoy cabbage
# Description: as §1, §2, §3, §10, §11, §12, §13, §14, §15
# [7] = 5 days after application, drench 10 mg a.i./plant
# [8] = 5 days after application, foliar: (I-5) 75 g a.i./ha, Karate Zeon CS100 12.5 g a.i./ha
# [9] = prior to application (baseline), drench 10 mg a.i./plant
# [10] = prior to application (baseline), foliar: (I-5) 75 g a.i./ha, Karate Zeon CS100 12.5 g a.i./ha
# [11] = 0 days after application, drench 10 mg a.i./plant
# [12] = 0 days after application, foliar: (I-5) 75 g a.i./ha, Karate Zeon CS100 12.5 g a.i./ha
# [13] = 1 day after application, drench 10 mg a.i./plant
# [14] = 1 day after application, foliar: (I-5) 75 g a.i./ha, Karate Zeon CS100 12.5 g a.i./ha
# [15] = 3 days after application, drench 10 mg a.i./plant
# [16] = 3 days after application, foliar: (I-5) 75 g a.i./ha, Karate Zeon CS100 12.5 g a.i./ha
smiles,measurement,setting,value
"O=C1C=C(N(Cc2ccc(Cl)nc2)CC(F)F)CO1 [compound (I-5), 4-{[(6-chloropyrid-3-yl)methyl](2,2-difluoroethyl)amino}furan-2(5H)-one]",Infestation by Myzus persicae (number per plant),Myzus persicae [1]; [7],23 number per plant
same,Infestation by Myzus persicae (number per plant),Myzus persicae [1]; [8],0 number per plant
same,Infestation by Myzus persicae (number per plant),Myzus persicae [1]; [9],394 number per plant
same,Infestation by Myzus persicae (number per plant),Myzus persicae [1]; [10],375 number per plant
same,kill of Episyrphus balteatus larvae [% Abbott],[2]; [11],0%
same,kill of Episyrphus balteatus larvae [% Abbott],[2]; [12],0%
same,kill of Episyrphus balteatus larvae [% Abbott],[2]; [13],10.3%
same,kill of Episyrphus balteatus larvae [% Abbott],[2]; [14],6.1%
same,kill of Episyrphus balteatus larvae [% Abbott],[2]; [15],10.3%
same,kill of Episyrphus balteatus larvae [% Abbott],[2]; [16],9%
same,kill of Episyrphus balteatus larvae [% Abbott],[2]; [7],0%
same,kill of Episyrphus balteatus larvae [% Abbott],[2]; [8],0%
same,kill of Coccinella septempunctata larvae [% Abbott],[3]; [11],0%
same,kill of Coccinella septempunctata larvae [% Abbott],[3]; [12],0%
same,kill of Coccinella septempunctata larvae [% Abbott],[3]; [13],1.7%
same,kill of Coccinella septempunctata larvae [% Abbott],[3]; [14],3.3%
same,kill of Coccinella septempunctata larvae [% Abbott],[3]; [15],1.7%
same,kill of Coccinella septempunctata larvae [% Abbott],[3]; [16],1.7%
same,kill of Coccinella septempunctata larvae [% Abbott],[3]; [7],3.4%
same,kill of Coccinella septempunctata larvae [% Abbott],[3]; [8],6.9%
same,Activity against nymphs of Macrolophus caliginosus on tomato [% kill according to Schneider-Orelli],"[4]; leaves plucked 1 day after application, drench 15 mg a.i./plant",0%
same,Activity against nymphs of Macrolophus caliginosus on tomato [% kill according to Schneider-Orelli],"[4]; leaves plucked 1 day after application, foliar: (I-5) 100 g a.i./ha, Karate Zeon CS100 12.5 g a.i./ha",52.2%
same,Activity against nymphs of Macrolophus caliginosus on tomato [% kill according to Schneider-Orelli],"[4]; leaves plucked 8 days after application, drench 15 mg a.i./plant",65.4%
same,Activity against nymphs of Macrolophus caliginosus on tomato [% kill according to Schneider-Orelli],"[4]; leaves plucked 8 days after application, foliar: (I-5) 100 g a.i./ha, Karate Zeon CS100 12.5 g a.i./ha",72.2%
same,Activity against nymphs of Macrolophus caliginosus on tomato [% kill according to Schneider-Orelli],"[4]; leaves plucked 16 days after application, drench 15 mg a.i./plant",35.7%
same,Activity against nymphs of Macrolophus caliginosus on tomato [% kill according to Schneider-Orelli],"[4]; leaves plucked 16 days after application, foliar: (I-5) 100 g a.i./ha, Karate Zeon CS100 12.5 g a.i./ha",21.7%
same,Activity against nymphs of Macrolophus caliginosus on tomato [% kill according to Schneider-Orelli],"[4]; leaves plucked 23 days after application, drench 15 mg a.i./plant",23.6%
same,Activity against nymphs of Macrolophus caliginosus on tomato [% kill according to Schneider-Orelli],"[4]; leaves plucked 23 days after application, foliar: (I-5) 100 g a.i./ha, Karate Zeon CS100 12.5 g a.i./ha",41.8%
same,Infestation by Metopolophium dirhodum (number per plant),Metopolophium dirhodum; [7],2.5 number per plant
same,Infestation by Metopolophium dirhodum (number per plant),Metopolophium dirhodum; [8],0 number per plant
same,Infestation by Metopolophium dirhodum (number per plant),Metopolophium dirhodum; drench 10 mg a.i./plant,85 number per plant
same,Infestation by Metopolophium dirhodum (number per plant),"Metopolophium dirhodum; foliar: (I-5) 75 g a.i./ha, Karate Zeon CS100 12.5 g a.i./ha",78 number per plant
same,Infestation by Myzus persicae (number per plant),Myzus persicae [5]; [7],19.4 number per plant
same,Infestation by Myzus persicae (number per plant),Myzus persicae [5]; [8],0 number per plant
same,Infestation by Myzus persicae (number per plant),Myzus persicae [5]; [9],367 number per plant
same,Infestation by Myzus persicae (number per plant),Myzus persicae [5]; [10],344 number per plant
same,kill of Aphidoteles aphidimyza larvae [% Abbott],[6]; [11],0%
same,kill of Aphidoteles aphidimyza larvae [% Abbott],[6]; [12],0%
same,kill of Aphidoteles aphidimyza larvae [% Abbott],[6]; [13],3.2%
same,kill of Aphidoteles aphidimyza larvae [% Abbott],[6]; [14],10.2%
same,kill of Aphidoteles aphidimyza larvae [% Abbott],[6]; [15],4.3%
same,kill of Aphidoteles aphidimyza larvae [% Abbott],[6]; [16],10.5%
same,kill of Aphidoteles aphidimyza larvae [% Abbott],[6]; [7],7.8%
same,kill of Aphidoteles aphidimyza larvae [% Abbott],[6]; [8],15.2%

# Source: patent publication US20110300110A1, “ENAMINOCARBONYL COMPOUND/BENEFICIAL ORGANISM COMBINATIONS” (BAYER CROPSCIENCE AG, priority 2008, published 2011)
